Results taken from publication PMC10746543, “Design principles for cyclin K molecular glue degraders” (Nature Chemical Biology, 2023).
Several values for one entry are separate records, joined by “and”; a condition that tells them apart may be missing. Equal values may be shown once. Read-outs that look alike come from different tables or passages of the source.

Assays:
CDK12–cyclin K and DDB1 = biological target: T1, CDK12–cyclin K and DDB1 (Homo sapiens, UniProt Q16531+Q9NYV4, K965R); test: TR-FRET ternary complex formation assay (compound titration); format: binding; conditions: for TR-FRET signal at compound concentration: replicate titrations
T1 construct: His6–CDK12 (a.a. 713–1,052); full-length or beta-propeller B domain deletion (ΔBPB: a.a. 396–705 deleted) constructs of His6–DDB1ΔBPB, StrepII–Avi–DDB1, or His6–Spy–DDB1; made in house; host or cells: Trichoplusia ni High Five insect cells (baculovirus)
Summary of the method: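 Background fluorescence is reduced by reading 70 μs after excitation, and complex formation is followed as the 520:490 nm fluorescence ratio.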

[1] = system: cyclin K–eGFP degradation reporter; test: Cyclin K reporter stability analysis (dual-color cyclin K–eGFP reporter); format: cell-based, human
Summary of the method: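 Readout: flow-cytometric eGFP/mCherry ratio (geometric means, round mCherry+ gate) relative to the average of three DMSO wells. Reporter line was HEK293T–Cas9, treated 5 h with compound.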

HEK293T cells = test: Drug sensitivity assay (CellTiter-Glo viability) with or without MLN4924 pretreatment; format: cell-based, human; conditions: for EC50: Homo sapiens, HEK-293T; for % MLN4924 rescue: PCA input; for Toxicity rescue: MLN4924-mediated cytotoxicity rescue, 10 µM used where n.d.
Summary of the method: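 First, cells (HEK293T–Cas9, 0.15 × 10^6 ml^−1) are exposed to DMSO or 100 nM MLN4924. Next, drugs follow at 2 h. Finally, CellTiter-Glo is read at day 3 and normalised to DMSO.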

[2] = compound concentration 0.468 nM
[3] = compound concentration 7.92001 nM
[4] = compound concentration 15.84 nM
[5] = compound concentration 30.96 nM
[6] = compound concentration 62.6401 nM
[7] = compound concentration 125.28 nM
[8] = compound concentration 244.8 nM
[9] = compound concentration 993.601 nM
[10] = compound concentration 2001.6 nM
[11] = in vitro complex formation, 50 nM CDK12–cyclin K, 100 nM DDB1, text and figures, read-out: TR-FRET EC50
[12] = sheet MOESM7, read-out: log TR-FRET EC50 (converted)
[13] = source data sheet correlations, read-out: TR-FRET EC50
[14] = source data sheet correlations, read-out: DC50
[15] = Supplementary Table 2, HEK293T viability, 72 h, compound alone, read-out: Cellular assays EC50
[16] = Supplementary Table 2, read-out: TR-FRET EC50 TR-FRET
[17] = Supplementary Table 2, HEK293T cycK-eGFP reporter, 5 h, read-out: Cellular assays DC50

T1 sequence (Q9NYV4 713-1052 K965R): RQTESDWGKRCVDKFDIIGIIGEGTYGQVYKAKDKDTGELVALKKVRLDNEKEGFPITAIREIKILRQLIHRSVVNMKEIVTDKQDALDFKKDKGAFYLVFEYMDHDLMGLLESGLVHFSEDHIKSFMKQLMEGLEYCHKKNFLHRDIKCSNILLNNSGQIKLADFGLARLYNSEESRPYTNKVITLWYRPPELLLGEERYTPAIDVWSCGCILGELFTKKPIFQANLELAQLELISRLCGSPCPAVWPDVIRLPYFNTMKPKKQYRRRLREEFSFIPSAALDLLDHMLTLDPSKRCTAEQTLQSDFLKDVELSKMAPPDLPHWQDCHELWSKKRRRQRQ
T1 sequence (O75909 1-267 partner): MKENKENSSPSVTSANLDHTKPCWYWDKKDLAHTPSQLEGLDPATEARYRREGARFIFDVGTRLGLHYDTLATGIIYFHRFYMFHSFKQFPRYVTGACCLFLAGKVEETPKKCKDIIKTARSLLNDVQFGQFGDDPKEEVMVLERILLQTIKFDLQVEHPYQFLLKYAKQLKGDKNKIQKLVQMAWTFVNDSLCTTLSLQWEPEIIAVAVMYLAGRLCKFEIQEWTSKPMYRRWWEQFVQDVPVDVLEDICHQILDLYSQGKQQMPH
T1 sequence (Q16531 whole entry): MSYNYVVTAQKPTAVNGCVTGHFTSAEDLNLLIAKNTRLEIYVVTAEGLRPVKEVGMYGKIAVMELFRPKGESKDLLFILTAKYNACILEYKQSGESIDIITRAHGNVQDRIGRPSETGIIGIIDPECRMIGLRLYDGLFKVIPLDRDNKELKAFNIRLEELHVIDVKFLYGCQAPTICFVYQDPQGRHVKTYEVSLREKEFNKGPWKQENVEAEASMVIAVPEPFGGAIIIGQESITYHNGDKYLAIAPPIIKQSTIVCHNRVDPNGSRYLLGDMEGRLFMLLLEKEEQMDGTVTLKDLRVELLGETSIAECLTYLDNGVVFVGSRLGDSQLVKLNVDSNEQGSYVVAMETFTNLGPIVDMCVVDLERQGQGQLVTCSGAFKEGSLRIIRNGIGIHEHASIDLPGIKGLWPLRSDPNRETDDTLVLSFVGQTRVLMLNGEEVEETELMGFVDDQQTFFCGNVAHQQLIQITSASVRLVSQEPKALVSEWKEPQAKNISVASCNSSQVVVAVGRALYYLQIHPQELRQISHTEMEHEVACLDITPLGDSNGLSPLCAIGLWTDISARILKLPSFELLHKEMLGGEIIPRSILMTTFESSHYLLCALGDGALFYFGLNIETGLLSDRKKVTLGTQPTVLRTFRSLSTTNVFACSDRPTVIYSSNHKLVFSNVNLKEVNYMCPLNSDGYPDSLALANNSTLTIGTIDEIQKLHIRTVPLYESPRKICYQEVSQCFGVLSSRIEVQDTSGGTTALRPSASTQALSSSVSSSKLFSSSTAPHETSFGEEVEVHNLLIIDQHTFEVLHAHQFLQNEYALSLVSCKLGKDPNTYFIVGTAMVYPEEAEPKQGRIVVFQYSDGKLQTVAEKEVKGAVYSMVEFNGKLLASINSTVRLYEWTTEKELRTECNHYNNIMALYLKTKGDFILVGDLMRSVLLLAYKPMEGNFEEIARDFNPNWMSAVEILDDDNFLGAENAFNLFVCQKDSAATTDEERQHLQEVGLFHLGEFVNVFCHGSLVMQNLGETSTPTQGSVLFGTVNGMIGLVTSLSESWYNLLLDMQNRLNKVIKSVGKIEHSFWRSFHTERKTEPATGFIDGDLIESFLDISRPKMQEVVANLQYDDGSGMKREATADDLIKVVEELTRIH

Structure (SMILES)	TR-FRET signal at compound concentration (CDK12–cyclin K and DDB1; [2])	TR-FRET signal at compound concentration (CDK12–cyclin K and DDB1; compound concentration 2.16 nM)	TR-FRET signal at compound concentration (CDK12–cyclin K and DDB1; compound concentration 3.6 nM)	TR-FRET signal at compound concentration (CDK12–cyclin K and DDB1; [3])	TR-FRET signal at compound concentration (CDK12–cyclin K and DDB1; [4])	TR-FRET signal at compound concentration (CDK12–cyclin K and DDB1; [5])	TR-FRET signal at compound concentration (CDK12–cyclin K and DDB1; [6])	TR-FRET signal at compound concentration (CDK12–cyclin K and DDB1; [7])	TR-FRET signal at compound concentration (CDK12–cyclin K and DDB1; [8])	TR-FRET signal at compound concentration (CDK12–cyclin K and DDB1; [9])	TR-FRET signal at compound concentration (CDK12–cyclin K and DDB1; [10])	EC50 (CDK12–cyclin K and DDB1; [11]) [nM]	EC50 (CDK12–cyclin K and DDB1; [12]) [nM]	EC50 (CDK12–cyclin K and DDB1; [13]) [nM]	DC50 [1, 14] [nM]	EC50 (HEK293T cells; [15]) [nM]	% MLN4924 rescue (HEK293T cells) [%]	Toxicity rescue (HEK293T cells; Supplementary Table 2) [%]	EC50 (CDK12–cyclin K and DDB1; [16]) [nM]	DC50 [1, 17] [nM]	other results
CC[C@H](CO)Nc1nc(NCCCc2cccc(F)c2)c2ncn(C(C)C)c2n1 [DS29]	0.256 and 0.2516	0.3133 and 0.3182	0.4047 and 0.4311	0.6615 and 0.6381	1.045 and 0.9914	1.635 and 1.536	2.287 and 2.228	2.838 and 2.826	3.127 and 3.261	3.39 and 3.672	3.566 and 3.699	46 ± 2	45.7	45.7	253	452	669	713	–	–	–
CC[C@H](CO)Nc1nc(NCc2ccn(-c3cccc(Cl)c3)n2)c2ncn(C(C)C)c2n1 [DS43]	0.2854 and 0.3016	0.3338 and 0.3545	0.4308 and 0.466	0.6201 and 0.666	0.9968 and 1.0413	1.655 and 1.7184	2.415 and 2.607	3.042 and 3.307	3.43 and 3.794	3.717 and 4.015	3.6778 and 3.923	44 ± 2	43.7	43.7	75	1260	649	697	–	–	EC50 (HEK293T cells; Supplementary Fig. 5, HEK293T, CellTiter Glo, 72h, pre-treatment with 100 nM MLN4924, read-out: Viability EC50, with MLN4924): 15500 nM
CC[C@H](CO)Nc1nc(NCc2ccc(-c3ccc(C)s3)cc2)c2ncn(C(C)C)c2n1 [DS25]	0.2617 and 0.2677	0.4243 and 0.428	0.7393 and 0.7415	1.2835 and 1.267	1.9468 and 1.95	2.593 and 2.662	3.101 and 3.186	3.361 and 3.544	3.469 and 3.727	3.278 and 3.742	3.339 and 3.592	15 ± 1	–	–	–	267	–	795	15	90	–
CC[C@H](CO)Nc1nc(NCCCc2ccco2)c2ncn(C(C)C)c2n1 [DS34]	–	–	–	–	–	–	–	–	–	–	–	603 ± 62	603	–	–	> 10000	–	0	603	> 10000	TR-FRET signal at compound concentration (CDK12–cyclin K and DDB1; compound concentration 4.68 nM): 0.2091 and 0.2292; TR-FRET signal at compound concentration (CDK12–cyclin K and DDB1; compound concentration 21.6 nM): 0.229 and 0.2555; TR-FRET signal at compound concentration (CDK12–cyclin K and DDB1; compound concentration 36 nM): 0.2532 and 0.2765; TR-FRET signal at compound concentration (CDK12–cyclin K and DDB1; compound concentration 79.2001 nM): 0.311 and 0.3352; TR-FRET signal at compound concentration (CDK12–cyclin K and DDB1; compound concentration 158.4 nM): 0.3881 and 0.4084; TR-FRET signal at compound concentration (CDK12–cyclin K and DDB1; compound concentration 309.6 nM): 0.5012 and 0.4942; TR-FRET signal at compound concentration (CDK12–cyclin K and DDB1; compound concentration 626.401 nM): 0.6373 and 0.6895; TR-FRET signal at compound concentration (CDK12–cyclin K and DDB1; compound concentration 1252.8 nM): 0.7887 and 0.8649; TR-FRET signal at compound concentration (CDK12–cyclin K and DDB1; compound concentration 2448 nM): 0.8803 and 0.974; TR-FRET signal at compound concentration (CDK12–cyclin K and DDB1; compound concentration 9936.01 nM): 1.0289 and 1.143; TR-FRET signal at compound concentration (CDK12–cyclin K and DDB1; compound concentration 20016 nM): 1.011 and 1.0565
CN1CC[C@H](c2c(O)cc(O)c3c(=O)cc(-c4ccccc4Cl)oc23)[C@H](O)C1 [Flavopiridol, reference compound]	–	–	–	–	–	–	–	–	–	–	–	–	–	–	–	395	–	1	–	> 10000	TR-FRET signal at compound concentration 4.68 nM (CDK12–cyclin K and DDB1; compound concentration 4.68 nM, raw replicate titration data): 0.2594 and 0.2805 and 0.1719 and 0.175; TR-FRET signal at compound concentration 21.6 nM (CDK12–cyclin K and DDB1; compound concentration 21.6 nM, raw replicate titration data): 0.4135 and 0.429 and 0.2939 and 0.3262; TR-FRET signal at compound concentration 36 nM (CDK12–cyclin K and DDB1; compound concentration 36 nM, raw replicate titration data): 0.6079 and 0.623 and 0.4905 and 0.5031; TR-FRET signal at compound concentration 79.2001 nM (CDK12–cyclin K and DDB1; compound concentration 79.2001 nM, raw replicate titration data): 0.8256 and 0.8685 and 0.6858 and 0.596; TR-FRET signal at compound concentration 158.4 nM (CDK12–cyclin K and DDB1; compound concentration 158.4 nM, raw replicate titration data): 0.9273 and 1.013 and 0.793 and 0.779; TR-FRET signal at compound concentration 309.6 nM (CDK12–cyclin K and DDB1; compound concentration 309.6 nM, raw replicate titration data): 0.9662 and 1.065 and 0.8707 and 0.8846; TR-FRET signal at compound concentration 626.401 nM (CDK12–cyclin K and DDB1; compound concentration 626.401 nM, raw replicate titration data): 1.035 and 1.155 and 0.9082 and 0.902; TR-FRET signal at compound concentration 1252.8 nM (CDK12–cyclin K and DDB1; compound concentration 1252.8 nM, raw replicate titration data): 1.099 and 1.27 and 0.978 and 0.9866; TR-FRET signal at compound concentration 2448 nM (CDK12–cyclin K and DDB1; compound concentration 2448 nM, raw replicate titration data): 1.138 and 1.2612 and 0.9975 and 0.9532; TR-FRET signal at compound concentration 9936.01 nM (CDK12–cyclin K and DDB1; compound concentration 9936.01 nM, raw replicate titration data): 1.131 and 1.306 and 0.9937 and 0.9375; TR-FRET signal at compound concentration 20016 nM (CDK12–cyclin K and DDB1; compound concentration 20016 nM, raw replicate titration data): 1.0554 and 1.222 and 0.9378 and 0.9067
CC[C@H](CO)Nc1nc(NCc2ccc(-c3ccncc3)nc2)c2ncn(C(C)C)c2n1 [DS53]	–	–	–	–	–	–	–	–	–	–	–	28 ± 2	–	27.7	260	635	–	140	–	–	TR-FRET signal at compound concentration 0.468 nM (CDK12–cyclin K and DDB1; compound concentration 0.468 nM, raw titration data): 0.2712 and 0.18 and 0.1818; TR-FRET signal at compound concentration 2.16 nM (CDK12–cyclin K and DDB1; compound concentration 2.16 nM, raw titration data): 0.3079 and 0.2048 and 0.2158; TR-FRET signal at compound concentration 3.6 nM (CDK12–cyclin K and DDB1; compound concentration 3.6 nM, raw titration data): 0.3797 and 0.262 and 0.2749; TR-FRET signal at compound concentration 7.92001 nM (CDK12–cyclin K and DDB1; compound concentration 7.92001 nM, raw titration data): 0.5132 and 0.3757 and 0.3886; TR-FRET signal at compound concentration 15.84 nM (CDK12–cyclin K and DDB1; compound concentration 15.84 nM, raw titration data): 0.7262 and 0.5713 and 0.5982; TR-FRET signal at compound concentration 30.96 nM (CDK12–cyclin K and DDB1; compound concentration 30.96 nM, raw titration data): 1.044 and 0.9086 and 0.9152; TR-FRET signal at compound concentration 62.6401 nM (CDK12–cyclin K and DDB1; compound concentration 62.6401 nM, raw titration data): 1.465 and 1.176 and 1.2036; TR-FRET signal at compound concentration 125.28 nM (CDK12–cyclin K and DDB1; compound concentration 125.28 nM, raw titration data): 1.697 and 1.379 and 1.374; TR-FRET signal at compound concentration 244.8 nM (CDK12–cyclin K and DDB1; compound concentration 244.8 nM, raw titration data): 1.763 and 1.446 and 1.498; TR-FRET signal at compound concentration 993.601 nM (CDK12–cyclin K and DDB1; compound concentration 993.601 nM, raw titration data): 1.748 and 1.523 and 1.543; TR-FRET signal at compound concentration 2001.6 nM (CDK12–cyclin K and DDB1; compound concentration 2001.6 nM, raw titration data): 1.731 and 1.529 and 1.559
